The results in this text go back to patent US20210179598A1, “SELECTIVE JAK2 INHIBITOR AND APPLICATION THEREOF” (EAST CHINA UNIVERSITY OF SCIENCE AND TECHNOLOGY, priority 2018, published 2021).

Where two headings read alike, the source gives them in different places. A value given as a limit tells only on which side of the number the result lay.

The target of one data set is JAK2 (Homo sapiens, UniProt O60674). The experiment in a line: JAK2 kinase activity test at molecular level (Z'-LYTE FRET). The class given is biochemical. The procedure:
JAK2 can catalyze the transfer of a phosphate group of adenosine triphosphate (ATP) to a polypeptide substrate, and the polypeptide substrate is labeled with two fluorescent groups, coumarin and fluorescein. […] Therefore, the inhibition rates of different compounds can be calculated by measuring the ratio of enzyme-catalyzed substrate phosphorylation percentages.
10 μL reaction system, 2.5 μL test compound, 5 μL kinase/peptide substrate mixture and 2.5 μL ATP solution were added into a 384-well plate, shaken for 30 s, and incubated at room temperature for 1 hour. 5 μL of proteolytic enzyme and 15 μL of the reaction system were added and shaken for 30 s and incubated at room temperature for 1 h. 5 μL of stop reagent was added, and the reaction system with a total volume of 20 μL was shaken for 30 seconds. A microplate reader was used to detect the fluorescence signal. […] The inhibition rates of the compound at 7 concentration gradients were determined, and the IC50 value for each compound was calculated by fitting curve with Origin 8.0.
(§1) NOTE: HEL, SET-2, H3122 cells were purchased from ATCC (American type culture collection), Z′-LYTETM kinase assay platform was purchased from Invitrogen, HTRF KinEASETM-TK was purchased from Cisbio, and Cell Counting Kit-8 was purchased from Beyotime.

Another data set addresses ALK (Homo sapiens, UniProt Q9UM73). Briefly: ALK kinase IC50 test (HTRF). The class given is biochemical. Particulars: Table 2.
Text: According to HTRF method, the peptide substrate was labeled with a biotin, which can specifically bind to XL665-labeled streptavidin. When the kinase adds a phosphate group to the polypeptide substrate in the first step, its Eu-labeled specific phosphorylation antibody can recognize and bind to it. In this way, in the second step of detection, a complex of XL665-labeled streptavidin, phosphorylated peptide substrate and Eu-labeled phosphorylation antibody can be formed. Since the distance between XL665 and Eu is short, FRET can be formed. On the other hand, Eu has a relatively long fluorescence half-life and can be applied to time-resolved fluorescence detection.
10 μL of reaction system, 4 μL test compound, 2 μL kinase, 2 μL biotin-labeled substrate and 2 μL ATP, was added into a 384-well plate, shaken for 30 s, and incubated at room temperature for 1 hour. 5 μL of Eu-labeled phosphorylation site-specific antibody and 5 μL of XL665-labeled streptavidin were added. The reaction system was shaken for 30 s, and incubated at room temperature for 1 hour. A microplate reader was used to detect the fluorescence signal. The inhibition rates of the compounds under 8 concentration gradients were determined, and the IC50 value of each compound was calculated by fitting curve with Origin 8.0. […] Each experiment was performed in triplicate.
as §1
Background: In TR-FRET formats the signal depends on donor and acceptor labels being close together.

Another data set relates to SET 2 (JAK2 V617F) cells. Briefly: CCK-8 cell proliferation detection, SET2 cells. Particulars: Homo sapiens, SET-2; Table 2; CCK-8, 72 hrs. The data set is classed as cell-based.
Text: (§2) WST-8 (chemical name: 2-(2-methoxy-4-nitrophenyl)-3-(4-nitrophenyl)-5-(2,4-disulfo benzene)-2H-tetrazolium monosodium), which is reduced to a highly water-soluble yellow formazan product (Formazan dye) by the dehydrogenase in cells under the action of the electron carrier dimethyl 1-methoxy-5-methylphenazinium sulfate (1-Methoxy PMS). The amount of the produced formazan is proportional to the number of living cells. Therefore, the survival rate of cells can be calculated indirectly by measuring the absorbance at 450 nm. The half inhibition rate of the compound on the proliferation of H3122, SET2, HEL cells can be determined by the CCK-8 method.
(§3) RPIM medium containing 10% FBS was used to culture cells (100 μL per well), and 3500 cells were inoculated into a 96-well plate, and placed in a 37° C., 5% CO2 incubator for 24 h, until 50%-70% of the cell confluence was achieved. Drugs with different concentration gradients were added respectively, and incubated for another 72 hrs. […] And finally the absorption value of each well was measured at 450 nm.
as §1

Another data set deals with HEL (JAK2 V617F) cells. Briefly: CCK-8 cell proliferation detection, HEL cells. The data set is classed as cell-based. The following applies: Homo sapiens, Table 2, CCK-8, 72 hrs.
Text: as §2, §3, §1

In the next data set the test system is H3122 cells. The experiment in a line: CCK-8 cell proliferation detection, H3122 cells. The class given is cell-based. The following applies: Homo sapiens, NCI-H3122; Table 2; CCK-8, 72 hrs.
Text: as §2, §3, §1

Where [1] appears, read: Table 1, read-out: JAK2 kinase activity IC50.

Chain of JAK2 (O60674 whole entry): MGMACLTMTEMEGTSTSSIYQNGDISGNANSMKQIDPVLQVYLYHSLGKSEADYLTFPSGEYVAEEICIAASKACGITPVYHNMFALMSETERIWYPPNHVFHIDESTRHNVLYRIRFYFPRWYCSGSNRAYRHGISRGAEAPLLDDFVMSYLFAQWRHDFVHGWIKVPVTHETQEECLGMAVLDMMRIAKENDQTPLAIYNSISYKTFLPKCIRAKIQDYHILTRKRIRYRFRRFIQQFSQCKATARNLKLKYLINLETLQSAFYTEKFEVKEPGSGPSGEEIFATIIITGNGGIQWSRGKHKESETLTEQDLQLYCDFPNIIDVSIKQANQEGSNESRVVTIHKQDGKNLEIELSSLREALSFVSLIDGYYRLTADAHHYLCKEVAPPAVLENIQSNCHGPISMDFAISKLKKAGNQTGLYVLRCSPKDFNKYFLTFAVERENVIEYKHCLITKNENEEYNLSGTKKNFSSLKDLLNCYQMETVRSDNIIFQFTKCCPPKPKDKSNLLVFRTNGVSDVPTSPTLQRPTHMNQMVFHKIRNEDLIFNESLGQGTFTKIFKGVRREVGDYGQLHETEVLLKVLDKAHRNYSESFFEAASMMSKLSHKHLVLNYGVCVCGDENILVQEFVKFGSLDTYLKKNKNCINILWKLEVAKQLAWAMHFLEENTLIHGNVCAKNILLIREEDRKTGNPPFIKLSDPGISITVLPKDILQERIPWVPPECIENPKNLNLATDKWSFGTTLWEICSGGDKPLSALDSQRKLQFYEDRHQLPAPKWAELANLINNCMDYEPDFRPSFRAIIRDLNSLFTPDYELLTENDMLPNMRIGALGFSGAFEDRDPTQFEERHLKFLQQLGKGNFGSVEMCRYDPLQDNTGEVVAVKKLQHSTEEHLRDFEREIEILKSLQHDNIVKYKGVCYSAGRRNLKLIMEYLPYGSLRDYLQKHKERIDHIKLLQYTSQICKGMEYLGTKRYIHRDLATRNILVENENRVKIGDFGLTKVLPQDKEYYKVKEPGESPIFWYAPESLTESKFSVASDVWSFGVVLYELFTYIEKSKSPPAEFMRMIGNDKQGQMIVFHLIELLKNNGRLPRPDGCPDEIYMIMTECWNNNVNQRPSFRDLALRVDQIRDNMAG
Chain of ALK (Q9UM73 19-1620, species assumed): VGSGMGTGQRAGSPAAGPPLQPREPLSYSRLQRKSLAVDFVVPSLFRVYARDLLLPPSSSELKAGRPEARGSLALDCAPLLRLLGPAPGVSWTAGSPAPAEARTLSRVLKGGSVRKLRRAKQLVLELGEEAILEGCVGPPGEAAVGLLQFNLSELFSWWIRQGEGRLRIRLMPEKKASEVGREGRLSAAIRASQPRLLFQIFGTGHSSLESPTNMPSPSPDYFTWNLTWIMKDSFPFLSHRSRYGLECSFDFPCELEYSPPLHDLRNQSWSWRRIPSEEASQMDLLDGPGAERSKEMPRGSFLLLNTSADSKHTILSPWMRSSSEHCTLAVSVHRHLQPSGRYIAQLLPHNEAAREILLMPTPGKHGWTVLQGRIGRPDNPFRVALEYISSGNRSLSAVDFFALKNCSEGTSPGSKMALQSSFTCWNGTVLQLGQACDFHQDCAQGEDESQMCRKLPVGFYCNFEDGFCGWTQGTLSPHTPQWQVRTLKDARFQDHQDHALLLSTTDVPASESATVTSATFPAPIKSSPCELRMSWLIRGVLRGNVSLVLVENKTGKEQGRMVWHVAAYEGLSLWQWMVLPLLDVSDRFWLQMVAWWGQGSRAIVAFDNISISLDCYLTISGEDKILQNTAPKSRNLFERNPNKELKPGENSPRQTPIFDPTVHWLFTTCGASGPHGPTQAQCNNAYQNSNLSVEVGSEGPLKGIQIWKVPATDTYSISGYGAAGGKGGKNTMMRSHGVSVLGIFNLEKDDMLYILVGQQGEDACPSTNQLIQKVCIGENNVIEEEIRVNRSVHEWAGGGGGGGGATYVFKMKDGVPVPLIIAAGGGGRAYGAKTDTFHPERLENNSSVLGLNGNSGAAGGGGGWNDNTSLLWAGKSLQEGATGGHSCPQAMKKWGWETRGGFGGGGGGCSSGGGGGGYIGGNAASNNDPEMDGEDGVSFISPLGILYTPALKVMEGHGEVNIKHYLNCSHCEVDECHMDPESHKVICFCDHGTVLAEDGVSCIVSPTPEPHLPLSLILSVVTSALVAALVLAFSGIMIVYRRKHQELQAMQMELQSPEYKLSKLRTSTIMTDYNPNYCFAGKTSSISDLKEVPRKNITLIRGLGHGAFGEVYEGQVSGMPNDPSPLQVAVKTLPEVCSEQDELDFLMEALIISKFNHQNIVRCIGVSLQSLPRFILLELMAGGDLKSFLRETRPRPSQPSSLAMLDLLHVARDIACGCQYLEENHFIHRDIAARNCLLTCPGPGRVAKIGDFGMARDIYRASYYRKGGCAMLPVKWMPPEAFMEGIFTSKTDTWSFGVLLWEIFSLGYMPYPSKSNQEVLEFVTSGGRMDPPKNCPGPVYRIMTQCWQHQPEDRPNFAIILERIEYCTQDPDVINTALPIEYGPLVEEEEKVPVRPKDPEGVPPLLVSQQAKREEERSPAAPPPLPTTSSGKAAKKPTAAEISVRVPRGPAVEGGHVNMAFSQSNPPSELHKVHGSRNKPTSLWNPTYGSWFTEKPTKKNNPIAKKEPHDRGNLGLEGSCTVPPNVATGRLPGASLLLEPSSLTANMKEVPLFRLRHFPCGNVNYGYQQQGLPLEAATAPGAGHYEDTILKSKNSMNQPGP

The term IC50 denotes the concentration needed to halve the response being measured. A word on the melting point: it is the temperature, or range, at which the solid turns liquid. Compound `CC(Oc1cc(-c2cn[nH]c2)cnc1N)c1cc(F)ccc1Cl` (centres unmarked) [WWQ-1093-81, 3-(1-(2-chloro-5-fluorophenyl)ethoxy)-2-amino-5-pyrazolepyridine] came in with a melting point of 183.8 to 184.6 °C. For the same compound, on JAK2 (setting [1]), the concentration for half-maximal inhibition (IC50) turned out to be 16 ± 0.1 nM. The IC50 on JAK2 (Table 2, read-out: JAK2 IC50) came out at 16 ± 0.1 nM. Moreover, the midpoint of inhibition against ALK, the IC50, lay at 334 nM. This compound also showed an IC50 in the data set with SET 2 (JAK2 V617F) cells of 5550 nM. In addition, the IC50 in the data set on HEL (JAK2 V617F) cells came out at 4700 nM. In addition, in the data set on H3122 cells, the half-inhibitory concentration (IC50) worked out at 2550 ± 160 nM.

As for `C[C@@H](Oc1cc(-c2cncc(N3CCNCC3)c2)cnc1N)c1c(Cl)ccc(F)c1Cl` [WWQ-1093-23, (R)-5-[1-(2,6-dichloro-3-fluorophenyl)ethoxy]-5′-piperazine-[3,3′-dipyridine]-6-amine], the melting point lay within 189.7 to 190.6 °C. Also, the concentration for half-maximal inhibition (IC50) at JAK2 (setting [1]) came to 119 ± 8.2 nM. The compound further registered an IC50 against ALK of 2440 nM. In the data set on SET 2 (JAK2 V617F) cells, 2890 nM corresponded to half-maximal inhibition (IC50). The compound also had an IC50 in the data set on HEL (JAK2 V617F) cells of 10400 nM. In the data set with H3122 cells, this compound returned an IC50 of 1540 ± 34 nM.

Consider `CC(Oc1cc(-c2ccccc2)cnc1N)c1c(Cl)ccc(F)c1Cl` (centres unmarked) [WWQ-1093-83], for which the melting point was in the range of 160.4 to 161.4 °C. Also, the IC50 on JAK2 (Table 2, read-out: JAK2 IC50) was greater than 10000 nM. Moreover, at ALK, the concentration for half-maximal inhibition (IC50) is greater than 10000 nM. Further, in the data set on SET 2 (JAK2 V617F) cells, the midpoint of inhibition, the IC50, lay at 11600 nM. In the data set with HEL (JAK2 V617F) cells, this compound gave an IC50 of 11300 nM. This compound yielded a concentration for half-maximal inhibition (IC50) with H3122 cells of 6060 ± 81 nM.

In the case of `COc1ccc(F)cc1C(C)Oc1cc(-c2cnn(C3CCNCC3)c2)cnc1N` (centres unmarked) [WWQ-1093-71], the melting point lay in the range of 191.6 to 192.3 °C. Also, the concentration for half-maximal inhibition (IC50) on JAK2 (setting [1]) was found to be 3 ± 0.1 nM. Also, the IC50 on JAK2 (Table 2, read-out: JAK2 IC50) worked out at 3 ± 0.1 nM. The IC50 against ALK stood at 1330 nM. This compound also returned an IC50 in the data set with SET 2 (JAK2 V617F) cells of 616 nM. The same compound showed an IC50 in the data set with HEL (JAK2 V617F) cells of 9970 nM. Also, in the data set with H3122 cells, the IC50 is less than 500 nM.

`C[C@@H](Oc1cc(-c2cnn(C3CCNCC3)c2)cnc1N)c1ccccc1` [WWQ-1093-25, 4-[3-(1-phenylpropoxy)-2-aminopyridine]pyrazole-1-piperidine]: the melting point is 194.2 to 195 °C. At JAK2 (setting [1]), the IC50 was determined as 215 ± 12.4 nM. The compound also yielded a 50% inhibitory concentration (IC50) against ALK of 5430 nM. The compound also came in with a half-maximal inhibitory concentration (IC50) in the data set on SET 2 (JAK2 V617F) cells of 4610 nM. Half-maximal inhibition with HEL (JAK2 V617F) cells (IC50) was put at 13700 nM. In the data set with H3122 cells, this compound gave an IC50 of 3520 ± 102 nM.

`C[C@@H](Nc1cc(-c2cnn(C3CCNCC3)c2)cnc1N)c1c(Cl)ccc(F)c1Cl` [WWQ-1093-73, 4-{3-[1-(2,6-dichloro-3-fluorophenyl)ethylamino]-2-aminopyridine}pyrazole-1-piperidine]: the melting point was in the range of 191.5 to 191.7 °C. For the same compound, the concentration for half-maximal inhibition (IC50) at JAK2 (setting [1]) was 126 ± 5.3 nM. In addition, on ALK, it took 3450 nM to reach half-maximal inhibition (IC50). Besides, half-maximal inhibition in the data set with SET 2 (JAK2 V617F) cells (IC50) required 2200 nM. In the data set with HEL (JAK2 V617F) cells, the half-maximal inhibitory concentration (IC50) was 13400 nM. For the same compound, the IC50 in the data set with H3122 cells came out at 4366 ± 5 nM.
